Measurements reported in paper doi:10.1101/2021.08.17.455204v3 (biorxiv, 2022).
pIC50: −log10 of the molar value.

Assays:
[1] = target: Androgen (Testosterone) (Homo sapiens, UniProt P10275); test: biochemical; settings: read-out: % inhibition
[2] = target: Nicotinic Acetylcholine α3β4 (Homo sapiens, UniProt P30926+P32297); test: biochemical; settings: read-out: % inhibition
[3] = target: Dopamine D3 (Homo sapiens, UniProt P35462); test: biochemical; settings: read-out: % inhibition
[4] = target: Angiotensin AT1 (Homo sapiens, UniProt P30556); test: biochemical; settings: read-out: % inhibition
[5] = target: Adenosine A2A (Homo sapiens, UniProt P29274); test: biochemical; settings: read-out: % inhibition
[6] = target: Estrogen ERβ (Homo sapiens, UniProt Q92731); test: biochemical; settings: read-out: % inhibition
[7] = target: Muscarinic M3 (Homo sapiens, UniProt P20309); test: biochemical; settings: read-out: % inhibition
Chain of Muscarinic M3 (P20309 whole entry): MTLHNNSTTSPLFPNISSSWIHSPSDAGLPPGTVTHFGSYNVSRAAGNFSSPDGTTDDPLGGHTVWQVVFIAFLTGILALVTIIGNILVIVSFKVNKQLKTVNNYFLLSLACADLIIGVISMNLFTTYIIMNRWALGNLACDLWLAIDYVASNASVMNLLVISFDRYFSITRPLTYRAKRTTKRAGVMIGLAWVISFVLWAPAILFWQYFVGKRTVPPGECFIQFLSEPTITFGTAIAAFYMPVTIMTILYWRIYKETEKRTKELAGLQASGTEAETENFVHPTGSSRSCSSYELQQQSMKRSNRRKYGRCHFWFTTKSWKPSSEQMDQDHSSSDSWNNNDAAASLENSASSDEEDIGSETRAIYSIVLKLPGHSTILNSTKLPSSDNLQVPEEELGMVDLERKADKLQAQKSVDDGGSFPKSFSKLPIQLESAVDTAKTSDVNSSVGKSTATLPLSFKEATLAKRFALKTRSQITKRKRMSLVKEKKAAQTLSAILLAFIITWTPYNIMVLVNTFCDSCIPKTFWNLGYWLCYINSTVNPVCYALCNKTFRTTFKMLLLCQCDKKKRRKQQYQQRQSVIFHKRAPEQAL

[8] = target: Adrenergic α2A (Homo sapiens, UniProt P08913); test: biochemical; settings: read-out: % inhibition
[9] = target: Adrenergic β2 (Homo sapiens, UniProt P07550); test: biochemical; settings: read-out: % inhibition
Chain of Adrenergic β2 (P07550 whole entry): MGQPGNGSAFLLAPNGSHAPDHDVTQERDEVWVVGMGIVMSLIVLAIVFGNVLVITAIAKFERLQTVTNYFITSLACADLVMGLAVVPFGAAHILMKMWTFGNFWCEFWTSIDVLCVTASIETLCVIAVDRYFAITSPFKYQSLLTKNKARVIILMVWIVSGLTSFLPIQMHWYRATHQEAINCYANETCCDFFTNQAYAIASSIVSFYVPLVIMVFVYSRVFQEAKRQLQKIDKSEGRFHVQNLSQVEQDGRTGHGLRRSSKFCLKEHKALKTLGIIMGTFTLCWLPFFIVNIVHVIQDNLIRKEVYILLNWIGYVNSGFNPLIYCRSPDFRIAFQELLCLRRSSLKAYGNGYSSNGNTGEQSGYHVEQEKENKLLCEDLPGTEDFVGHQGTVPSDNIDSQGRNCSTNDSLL

[10] = target: Muscarinic M5 (Homo sapiens, UniProt P08912); test: biochemical; settings: read-out: % inhibition
[11] = target: Dopamine D2s (Homo sapiens, UniProt P14416); test: biochemical; settings: read-out: % inhibition
[12] = target: Adrenergic β1 (Homo sapiens, UniProt P08588); test: biochemical; settings: read-out: % inhibition
[13] = target: Angiotensin AT2 (Homo sapiens, UniProt P50052); test: biochemical; settings: read-out: % inhibition
[14] = target: Histamine H1 (Homo sapiens, UniProt P35367); test: biochemical; settings: read-out: % inhibition
[15] = target: Estrogen ERα (Homo sapiens, UniProt P03372); test: biochemical; settings: read-out: % inhibition
[16] = target: Sigma σ2 (Rattus norvegicus, UniProt Q5U3Y7); test: biochemical; settings: read-out: % inhibition
Chain of Sigma σ2 (Q5U3Y7 whole entry): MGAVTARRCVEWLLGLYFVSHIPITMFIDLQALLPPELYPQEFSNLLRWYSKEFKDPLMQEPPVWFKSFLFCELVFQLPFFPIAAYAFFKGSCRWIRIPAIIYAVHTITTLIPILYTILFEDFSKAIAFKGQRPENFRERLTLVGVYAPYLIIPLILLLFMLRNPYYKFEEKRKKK

[17] = target: Adrenergic α1B (Rattus norvegicus, UniProt P15823); test: biochemical; settings: read-out: % inhibition
Chain of Adrenergic α1B (P15823 whole entry): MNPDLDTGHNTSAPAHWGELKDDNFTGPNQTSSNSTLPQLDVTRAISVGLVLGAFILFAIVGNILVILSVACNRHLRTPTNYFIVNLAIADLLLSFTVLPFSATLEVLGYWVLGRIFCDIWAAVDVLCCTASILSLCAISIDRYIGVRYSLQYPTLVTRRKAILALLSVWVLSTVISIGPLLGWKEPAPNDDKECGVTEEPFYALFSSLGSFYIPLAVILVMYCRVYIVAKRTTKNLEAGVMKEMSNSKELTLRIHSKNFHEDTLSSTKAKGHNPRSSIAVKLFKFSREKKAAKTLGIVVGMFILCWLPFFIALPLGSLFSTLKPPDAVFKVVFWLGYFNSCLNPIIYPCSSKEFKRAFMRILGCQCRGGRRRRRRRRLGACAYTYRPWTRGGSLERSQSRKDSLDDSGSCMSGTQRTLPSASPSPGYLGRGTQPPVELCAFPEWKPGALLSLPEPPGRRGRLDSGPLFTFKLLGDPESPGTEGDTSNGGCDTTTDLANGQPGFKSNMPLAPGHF

[18] = target: Dopamine D1 (Homo sapiens, UniProt P21728); test: biochemical; settings: read-out: % inhibition
[19] = target: Potassium Channel hERG (Homo sapiens, UniProt Q12809); test: in vitro; settings: crude membrane preparations
[20] = target: Opiate μ (OP3, MOP) (Homo sapiens, UniProt P35372); test: biochemical; settings: read-out: % inhibition
[21] = target: Sigma σ1 (Homo sapiens, UniProt Q99720); test: biochemical; settings: read-out: % inhibition
[22] = target: Adenosine A1 (Homo sapiens, UniProt P30542); test: biochemical; settings: read-out: % inhibition
[23] = target: Transporter, Norepinephrine (NET) (Homo sapiens, UniProt P23975); test: biochemical; settings: read-out: % inhibition
Chain of Transporter, Norepinephrine (NET) (P23975 whole entry): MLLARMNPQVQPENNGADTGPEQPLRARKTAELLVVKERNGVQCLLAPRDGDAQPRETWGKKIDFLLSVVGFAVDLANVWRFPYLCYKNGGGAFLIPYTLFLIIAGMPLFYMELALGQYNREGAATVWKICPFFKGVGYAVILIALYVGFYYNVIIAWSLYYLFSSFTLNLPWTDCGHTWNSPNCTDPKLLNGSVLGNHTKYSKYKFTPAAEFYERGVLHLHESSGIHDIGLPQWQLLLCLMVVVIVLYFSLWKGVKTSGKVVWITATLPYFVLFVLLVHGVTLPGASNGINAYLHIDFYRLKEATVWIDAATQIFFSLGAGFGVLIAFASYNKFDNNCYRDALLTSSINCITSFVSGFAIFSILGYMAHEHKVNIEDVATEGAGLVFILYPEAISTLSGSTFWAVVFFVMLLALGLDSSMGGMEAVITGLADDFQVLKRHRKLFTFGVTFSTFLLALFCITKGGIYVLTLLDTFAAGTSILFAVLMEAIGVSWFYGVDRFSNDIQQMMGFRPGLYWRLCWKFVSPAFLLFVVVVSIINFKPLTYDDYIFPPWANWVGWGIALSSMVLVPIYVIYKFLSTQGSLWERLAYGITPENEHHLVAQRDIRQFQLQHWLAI

[24] = target: Adrenergic α1A (Rattus norvegicus, UniProt P43140); test: biochemical; settings: read-out: % inhibition
[25] = target: Muscarinic M2 (Homo sapiens, UniProt P08172); test: biochemical; settings: read-out: % inhibition
[26] = target: CYP450, 19 (Homo sapiens, UniProt P11511); test: biochemical; settings: read-out: % inhibition
Chain of CYP450, 19 (P11511 whole entry, canonical isoform): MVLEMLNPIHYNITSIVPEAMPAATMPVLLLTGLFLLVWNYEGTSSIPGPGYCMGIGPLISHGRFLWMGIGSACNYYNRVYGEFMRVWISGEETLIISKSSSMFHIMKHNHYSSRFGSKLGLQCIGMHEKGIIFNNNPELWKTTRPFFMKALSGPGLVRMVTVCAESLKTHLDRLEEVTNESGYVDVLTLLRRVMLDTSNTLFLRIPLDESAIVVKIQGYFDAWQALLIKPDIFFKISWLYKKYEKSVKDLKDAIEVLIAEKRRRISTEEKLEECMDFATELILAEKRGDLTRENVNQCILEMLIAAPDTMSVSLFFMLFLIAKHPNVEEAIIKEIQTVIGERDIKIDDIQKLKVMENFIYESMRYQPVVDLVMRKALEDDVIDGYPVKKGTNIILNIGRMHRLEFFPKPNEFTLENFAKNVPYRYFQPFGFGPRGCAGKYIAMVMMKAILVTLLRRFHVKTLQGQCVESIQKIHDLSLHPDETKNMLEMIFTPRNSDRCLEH

[27] = target: Na+/K+ ATPase alpha1 isoform from dog kidney (Canis lupus, UniProt P50997); test: […]-ATP hydrolysis, ouabain-sensitive ATPase inhibition; format: biochemical
[28] = target: Peptidase, Renin (Homo sapiens, UniProt P00797); test: biochemical; settings: read-out: % inhibition
[29] = target: Protein Tyrosine Kinase, ABL1 (Homo sapiens, UniProt P00519); test: biochemical; settings: read-out: % inhibition
[30] = target: Monoamine Oxidase MAO-B (Homo sapiens, UniProt P27338); test: biochemical; settings: read-out: % inhibition
[31] = target: HMG-CoA Reductase (Homo sapiens, UniProt P04035); test: biochemical; settings: read-out: % inhibition
[32] = target: Monoamine Oxidase MAO-A (Homo sapiens, UniProt P21397); test: biochemical; settings: read-out: % inhibition
[33] = target: Protein Tyrosine Kinase, Src (Homo sapiens, UniProt P12931); test: biochemical; settings: read-out: % inhibition
[34] = target: Glucocorticoid (Homo sapiens, UniProt P04150); test: biochemical; settings: read-out: % inhibition
Chain of Glucocorticoid (P04150 whole entry): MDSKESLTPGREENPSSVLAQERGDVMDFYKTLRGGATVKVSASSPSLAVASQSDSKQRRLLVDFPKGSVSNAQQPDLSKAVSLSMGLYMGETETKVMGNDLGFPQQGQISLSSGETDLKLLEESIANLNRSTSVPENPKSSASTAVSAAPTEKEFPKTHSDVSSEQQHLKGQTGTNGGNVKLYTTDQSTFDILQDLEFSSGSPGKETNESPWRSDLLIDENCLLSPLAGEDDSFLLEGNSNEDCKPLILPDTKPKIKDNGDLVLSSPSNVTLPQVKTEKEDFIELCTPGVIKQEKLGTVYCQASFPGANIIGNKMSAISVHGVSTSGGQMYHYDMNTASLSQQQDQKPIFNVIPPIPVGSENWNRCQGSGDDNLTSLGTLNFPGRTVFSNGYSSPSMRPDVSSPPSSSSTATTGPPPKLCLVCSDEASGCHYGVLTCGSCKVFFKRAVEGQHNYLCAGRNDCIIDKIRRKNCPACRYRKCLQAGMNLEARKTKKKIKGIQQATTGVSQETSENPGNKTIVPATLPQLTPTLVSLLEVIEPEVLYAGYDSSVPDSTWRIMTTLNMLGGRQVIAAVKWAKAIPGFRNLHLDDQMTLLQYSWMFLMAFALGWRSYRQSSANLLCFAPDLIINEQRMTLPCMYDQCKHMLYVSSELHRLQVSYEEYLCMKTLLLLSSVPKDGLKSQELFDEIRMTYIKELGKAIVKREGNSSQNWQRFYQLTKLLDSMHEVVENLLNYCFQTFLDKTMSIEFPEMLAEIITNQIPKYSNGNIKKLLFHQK

[35] = target: SERCA2a (guinea-pig cardiac SR microsomes) (Cavia porcellus, UniProt A0A286XD73); test: […]-ATP hydrolysis; format: biochemical; settings: 37 °C; normal guinea-pig heart SR microsomes; activation; PLN present
[36] = target: Aldosterone (Rattus norvegicus, UniProt P22199); test: biochemical; settings: read-out: % inhibition
[37] = target: Insulin (Rattus norvegicus, UniProt P15127); test: biochemical; settings: read-out: % inhibition
Chain of Insulin (P15127 whole entry): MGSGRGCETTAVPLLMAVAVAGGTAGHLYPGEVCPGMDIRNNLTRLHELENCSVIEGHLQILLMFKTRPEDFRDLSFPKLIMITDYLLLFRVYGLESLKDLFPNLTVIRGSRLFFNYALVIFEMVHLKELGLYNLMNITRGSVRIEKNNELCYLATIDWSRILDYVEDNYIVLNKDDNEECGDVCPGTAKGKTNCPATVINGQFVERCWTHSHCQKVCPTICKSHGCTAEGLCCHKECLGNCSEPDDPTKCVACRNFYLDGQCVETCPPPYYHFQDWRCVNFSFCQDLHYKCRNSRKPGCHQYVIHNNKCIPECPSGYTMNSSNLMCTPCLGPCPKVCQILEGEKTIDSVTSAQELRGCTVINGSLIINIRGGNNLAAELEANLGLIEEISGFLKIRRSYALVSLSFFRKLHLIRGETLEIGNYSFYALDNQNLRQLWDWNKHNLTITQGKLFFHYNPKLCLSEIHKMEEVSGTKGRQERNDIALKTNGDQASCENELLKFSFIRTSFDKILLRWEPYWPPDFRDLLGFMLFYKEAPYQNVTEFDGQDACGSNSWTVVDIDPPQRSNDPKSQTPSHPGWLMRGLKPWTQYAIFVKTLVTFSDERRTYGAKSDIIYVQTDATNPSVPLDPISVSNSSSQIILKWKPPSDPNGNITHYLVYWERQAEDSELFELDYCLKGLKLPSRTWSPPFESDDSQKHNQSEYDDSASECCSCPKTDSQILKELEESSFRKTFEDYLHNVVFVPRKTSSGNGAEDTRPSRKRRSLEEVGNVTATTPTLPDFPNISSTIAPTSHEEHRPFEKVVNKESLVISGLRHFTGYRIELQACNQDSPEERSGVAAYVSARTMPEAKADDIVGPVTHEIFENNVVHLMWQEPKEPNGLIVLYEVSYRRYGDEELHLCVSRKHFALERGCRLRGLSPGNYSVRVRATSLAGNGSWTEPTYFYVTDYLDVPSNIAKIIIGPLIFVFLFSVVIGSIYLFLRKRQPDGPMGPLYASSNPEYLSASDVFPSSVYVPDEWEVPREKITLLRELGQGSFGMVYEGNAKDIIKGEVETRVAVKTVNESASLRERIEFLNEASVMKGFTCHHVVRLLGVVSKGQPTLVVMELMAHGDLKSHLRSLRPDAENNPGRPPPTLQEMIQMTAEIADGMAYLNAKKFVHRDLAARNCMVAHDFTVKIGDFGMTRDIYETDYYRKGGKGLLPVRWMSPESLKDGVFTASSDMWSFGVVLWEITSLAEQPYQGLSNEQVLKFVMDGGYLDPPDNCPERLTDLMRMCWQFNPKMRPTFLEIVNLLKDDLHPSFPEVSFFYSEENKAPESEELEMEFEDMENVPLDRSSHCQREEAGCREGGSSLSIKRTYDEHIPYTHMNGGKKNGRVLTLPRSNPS

[38] = target: Peptidase, Angiotensin Converting Enzyme (Oryctolagus cuniculus, UniProt P12822); test: biochemical; settings: read-out: % inhibition
[39] = target: Progesterone PR-B (Homo sapiens, UniProt P06401); test: biochemical; settings: read-out: % inhibition

## C[C@]12CCC(=NOCC(=O)O)C[C@@H]1[C@H](O)C[C@@H]1[C@@H]2CC[C@]2(C)C(=O)CC[C@@H]12 (mixture of isomers) [PST3093, (E,Z)-[(6-beta-hydroxy-17-oxoandrostan-3-ylidene)amino]oxyacetic acid]
[1]
  inhibition at 10 µM: 3%
[2]
  inhibition at 10 µM: 1%
[3]
  inhibition at 10 µM: 1%
[4]
  inhibition at 10 µM: -1%
[5]
  inhibition at 10 µM: -6%
[6]
  inhibition at 10 µM: 7%
[7]
  inhibition at 10 µM: 4%
[8]
  inhibition at 10 µM: -5%
[9]
  inhibition at 10 µM: 7%
[10]
  inhibition at 10 µM: 5%
[11]
  inhibition at 10 µM: 26%
[12]
  inhibition at 10 µM: -4%
[13]
  inhibition at 10 µM: 7%
[14]
  inhibition at 10 µM: -3%
[15]
  inhibition at 10 µM: -6%
[16]
  inhibition at 10 µM: 12%
[17]
  inhibition at 10 µM: 0%
[18]
  inhibition at 10 µM: 3%
[19]
  inhibition at 10 µM: 10%
[20]
  inhibition at 10 µM: -5%
[21]
  inhibition at 10 µM: 7%
[22]
  inhibition at 10 µM: -2%
[23]
  inhibition at 10 µM: 4%
[24]
  inhibition at 10 µM: 2%
[25]
  inhibition at 10 µM: -7%
[26]
  inhibition at 10 µM: 12%
[27]
  pIC50: < 4.00
[28]
  inhibition at 10 µM: 6%
[29]
  inhibition at 10 µM: 3%
[30]
  inhibition at 10 µM: -3%
[31]
  inhibition at 10 µM: -2%
[32]
  inhibition at 10 µM: 2%
[33]
  inhibition at 10 µM: -1%
[34]
  inhibition at 10 µM: 8%
[35]
  % reduction of KdCa at 100 nM: ~ 20%
[36]
  inhibition at 10 µM: 5%
[37]
  inhibition at 10 µM: 6%
[38]
  inhibition at 10 µM: 3%
[39]
  inhibition at 10 µM: -15%
